According to patent EP4592276A1, “NOVEL ACY[…] OF PSILOCIN AND RELATED 4-HYDROXYT[…] BY AN EFFICIENT […] APPROACH” (Universität Heidelberg, priority 2024, dated 2025):
Counter-ions that a name gives are not always drawn. Marks after values point to notes of the source that are not given here.

Columns and labels:
[1] = Passive membrane permeation assay (PAMPA); assay type: in vitro ADME; settings: pre-coated PAMPA plate, PBS pH 7.4, 200 µM, 25 °C; for R (mass retention) / Pe: 5 h; for Pe / Papp at 5 h, 200 µM: mean ± standard deviation; for Papp at 5 h, 200 µM: read-out: Pe
Protocol: The passive membrane permeability was evaluated with a pre-coated PAMPA plate system (BD Gentest, BD Bioscience, Germany) following the guidelines of the manufacturer and a previous literature report (cf. Kühl et al. Eur. J. Med. Chem. 2022, 240, 114585). Phosphate-buffered saline (PBS) pH 7.4 (Sigma-Aldrich, Germany) was used for all experiments. Analyte concentrations were determined on a Jasco HPLC system equipped with a UV detector and an RP-18 column (Chromolith® Performance RP-18e, 100x4.6 mm) using one of the gradients listed in Table 2. For all samples, the injection volume was 40 µl. Table 2: HPLC settings for the analysis of PAMPA samples.
Prior to performing the assay, the PAMPA plate was warmed to room temperature for 0.5 h. In the donor plate, 300 µL of the 200 µM compound solutions in PBS (4 % dimethyl sulfoxide (DMSO)) were dispensed in triplicate, and in the acceptor plate, 200 µL of PBS buffer were added to all wells. The plates were combined, and the system was incubated at 25 °C for 5 h. Upon completion of the incubation, donor and acceptor plate were separated. The wells were homogeneously mixed with a pipette, and a 100 µl sample of each donor and acceptor well was transferred to 96 well U-bottom polypropylene plates (Greiner Bio-One, Germany) for quantitative HPLC analysis.

HuH-7 cells = test: Cell viability in HuH-7 cells (CellTiter-Blue); assay type: cell-based, human; settings: for Cell Viability in HuH7 at 50 µM, 2 h Incubation / Cell Viability in HuH7 at 50 µM, 24 h Incubation: mean of triplicates ± standard deviation; for toxicity for HuH-7 cells: result in words
Protocol: In order to assess cytotoxic effects of compounds in cell culture, HuH-7 cells were incubated in presence of these compounds in a 96-well plate for 2 h or 24 h. In order to generate a calibration curve for cell viability, a serial dilution (1:2 dilution series) of cells was seeded into control wells. Measurement of cell viability is based on the assay development using CellTiter-Blue reagent (Resazurin, blue color), which is reduced to resofurin (pink color) by viable cells.
Prior to performing the assay, a 96-well assay plate (F-bottom, transparent, Greiner) containing HuH-7 cells (20,000 cells per well) in culture medium was prepared. […] CellTiter-Blue reagent (1-2 mL) was diluted with cell culture medium (10 mL) in a Falcon tube and prewarmed to 37 °C. The 96-well plate was removed from the incubator, the medium aspirated using a vacuum pump and 100 µL of diluted CellTiter-Blue reagent was added to each well.

[2] = Drug release kinetics (prodrug cleavage) in human blood plasma; assay type: in vitro ADME; settings: for half-life at 50 µM / t1/2 at 37 °C and [prodrug]0 = 50 µM, 100 % Human Plasma: 100 % human plasma; for half-life at 50 µM / half-life: 37 °C; for half-life: 10 % human plasma in PBS, 50 µM
Protocol: Pooled human blood plasma (Biowest, France) and sterile Dulbecco's phosphate buffered saline (PBS) pH 7.3 (Sigma-Aldrich, Germany) were used for all experiments. The blood plasma was aliquoted upon receipt and stored at -20 °C. 10 % solutions were prepared by thawing a plasma aliquot at 2-8 °C, distributing it into plastic vials and diluting with the appropriate volume of sterile PBS. The 10 % and 100 % plasma aliquots were stored at -20 °C and thawed at 2-8 °C directly before the assay was performed. In a thermoblock, a plasma aliquot and 10 µl of a 5 mM prodrug solution in DMSO were prewarmed to 37 °C for 10 min in separate plastic vials. Then, 1000 µl of the prewarmed plasma sample was added to the prodrug solution, and 9×100 µl samples were withdrawn at appropriate time intervals. The enzymatic reaction was quenched by immediate mixing of the samples (100 µl) with acetonitrile (200 µl). Blank samples were prepared by mixing 10 % or 100 % plasma (100 µl) with acetonitrile (200 µl), respectively. Samples of the initial reaction mixture were prepared by adding the 5 mM prodrug solution (1 µl) to a blank sample.
Centrifugation (13,000 rpm, 3 min) of the quenched samples afforded clear supernatants which were transferred to 96 well U-bottom polypropylene plates (Greiner Bio-One, Germany). Analyte quantifications were performed on a Jasco HPLC system equipped with a UV detector and an RP-18 column (Chromolith® Performance RP-18e, 100x4.6 mm) using one of the gradients listed in Table 3. Prodrug degradation was monitored using undiluted supernatant and a 10 min chromatographic method. […] For all samples, the injection volume was 40 µL and the flow was set to 1.0 mL/min. […] Table 3: HPLC settings for quantitative analysis of plasma samples.

[3] = Prodrug stability in human whole saliva; assay type: in vitro ADME; settings: mean of fresh samples of three individuals, classified into three groups; for half-life at 50 µM: 37 °C
Protocol: Freshly collected saliva and 5 mM stock solutions of the analytes in DMSO were prewarmed to 37 °C for 10 min. Then, 700 µl prewarmed saliva was added to 7 µl of the prodrug stock, and the mixture was incubated at 37 °C. Samples (100 µL) were taken at selected time points (0, 10, 20, 40, 60 min; 2 h or 24 h) and immediately quenched with acetonitrile (200 µl). Blank samples were prepared by mixing saliva (100 µl) with acetonitrile (200 µl). Centrifugation (3,000 rpm, 5 min) of the quenched samples afforded clear supernatants which were transferred to 96 well U-bottom polypropylene plates (Greiner Bio-One, Germany). Analyte quantifications were performed on a Jasco HPLC system equipped with a UV detector and an RP-18 column (Chromolith® Performance RP-18e, 100x4.6 mm) using the gradients listed in Table 4. Samples that gave rise to asymmetric peaks inadequate for quantification were diluted (1:1) with H2O (+0.1 % TFA). The injection volume was 40 µl and the flow was set to 1.0 mL/min. UV detection was performed at 286 nm. […] Table 4: HPLC settings for quantitative analysis of saliva samples.

[4] = 100 % pooled human blood plasma

Row | Structure (SMILES) | R (mass retention) [1] | Cell Viability in HuH7 at 50 µM, 2 h Incubation (HuH-7 cells) | Cell Viability in HuH7 at 50 µM, 24 h Incubation (HuH-7 cells) | Papp at 5 h, 200 µM [1] | also measured
1 | CN(C)CCc1c[nH]c2cccc(OCOC(=O)C(C)(C)C)c12 [Compound 15a, 4-Pivaloyloxymethyloxy-N,N-dimethyltryptammonium fumarate] | 4% | 61.6 ± 6.0% | 61.6 ±18.4% | – | Pe [1]: 9.1 ± 0.5 10^-6 cm/s; half-life at 50 µM [2]: > 5 h; half-life at 50 µM [3]: 15 to 60 min
2 | CCCC(=O)OCOc1cccc2[nH]cc(CCN(C)CC)c12 [Compound 15d, 4-n-Butanoyloxymethyloxy-N-ethyl-N-methyltryptammonium fumarate] | 6% | 85.4 ± 2.7% | 80.6 ± 3.3% | – | Pe [1]: 8.0 ± 0.3 10^-6 cm/s; half-life at 50 µM [3]: < 15 min
3 | CCN(C)CCc1c[nH]c2cccc(OC(=O)CC(C)C)c12 [Compound 8g, 4-(3-Methylbutanoyl)oxy-N-ethyl-N-methyltryptammonium fumarate] | 2% | 81.7 ± 8.6% | 79.8 ± 4.6% | 10.6 ± 0.8 ×10⁻⁶ cm/s | half-life [2]: > 8 min
4 | CN(C)CCCN1c2ccccc2CCc2ccccc21 [Imipramine HCl, reference compound] | – | 91.1 ± 3.7% | 24.4 ± 5.3% | – | –
5 | CN(C)CCc1cn(C(=O)OCc2ccccc2)c2cccc(O)c12 [Compound 10, 1-Benzyloxycarbonyl-4-hydroxy-N,N-dimethyltryptamine] | – | 0.1 ± 0.2% | -1.3 ± 0.1% | – | toxicity for HuH-7 cells (HuH-7 cells): extremely toxic; half-life at 50 µM [2, 4]: > 95 h
6 | CCN(C)CCc1c[nH]c2cccc(OC(=O)c3ccco3)c12.CCN(C)CCc1c[nH]c2cccc(OC(=O)c3ccco3)c12.O=C(O)/C=C/C(=O)O [Compound 8j, 4-(2-Furoyl)oxy-N-ethyl-N-methyltryptammonium fumarate] | – | 89.6 ± 3.4% | 78.0 ± 2.0% | – | t1/2 at 37 °C and [prodrug]0 = 50 µM, 100 % Human Plasma [2]: 0.14 ± 0.01 min; t1/2 at 37 °C and [prodrug]0 = 50 µM, Human Saliva [3]: 15 to 60 min
7 | CCN(C)CCc1c[nH]c2cccc(OC(=O)c3ccccc3)c12 [Compound 8i, 4-Benzoyloxy-N-ethyl-N-methyltryptammonium fumarate] | 6% | 95.0 ± 3.8% | 80.1 ± 1.7% | 9.4 ± 0.8 ×10⁻⁶ cm/s | half-life [2]: 1.5 ± 0.5 min; half-life at 50 µM [3]: 15 to 60 min
8 | CCN(C)CCc1c[nH]c2cccc(OC(C)=O)c12 [Compound 8a, 4-Acetoxy-N-ethyl-N-methyltryptammonium fumarate, reference compound] | 4% | 88.7 ± 3.0% | 85.4 ± 3.6% | 5.6 ± 0.8 ×10⁻⁶ cm/s | half-life [2]: 0.69 ± 0.14 min; half-life at 50 µM [3]: 15 to 60 min
9 | CCN(C)CCc1c[nH]c2cccc(O)c12 [4-OH-MET fumarate 17, 4-Hydroxy-N-ethyl-N-methyltryptammonium fumarate, reference compound] | 29% | 91.0 ± 1.7% | 82.9 ± 1.3% | 11 ± 1 ×10⁻⁶ cm/s | –
10 | CCN(C)CCc1cn(C(=O)OCc2ccccc2)c2cccc(O)c12 [Compound 11, 1-Benzyloxycarbonyl-4-hydroxy-N-ethyl-N-methyltryptamine] | – | 0.1 ± 0.2% | -2.1 ± 0.1% | – | toxicity for HuH-7 cells (HuH-7 cells): extremely toxic; half-life at 50 µM [2, 4]: > 95 h
11 | CCCC(=O)OCOc1cccc2[nH]cc(CCN(C)C)c12 [Compound 15b, 4-n-Butanoyloxymethyloxy-N,N-dimethyltryptammonium fumarate] | 7^b % | 90.0 ± 5.2% | 79.3 ± 3.5% | – | Pe [1]: 8.1 ± 0.8^b 10^-6 cm/s; half-life at 50 µM [3]: < 15 min
12 | CCN(C)CCc1c[nH]c2cccc(OC(=O)CC(C)(C)C)c12 [Compound 8h, 4-(tert-Butylacetyl)oxy-N-ethyl-N-methyltryptammonium fumarate] | 1% | 28.7 ± 1.1% | 42.3 ± 25.9% | 11.2 ± 0.8 ×10⁻⁶ cm/s | half-life [2]: > 8 min
13 | CN(C)CCc1c[nH]c2cccc(O)c12 [Psilocin 1, 4-Hydroxy-N,N-dimethyltryptamine, reference compound] | – | 93.7 ± 6.3% | 72.5 ± 8.3% | – | –
14 | O=C1NC(=O)C(c2ccccc2)(c2ccccc2)N1 [Phenytoin, reference compound] | 57% | 122.9 ± 1.7% | 84.2 ± 2.7% | 7.5 ± 1 ×10⁻⁶ cm/s | –
15 | CCN(C)CCc1c[nH]c2cccc(OC(=O)C3CC3)c12.CCN(C)CCc1c[nH]c2cccc(OC(=O)C3CC3)c12.O=C(O)/C=C/C(=O)O [Compound 8e, 4-(Cyclopropanecarbonyloxy)-N-ethyl-N-methyltryptammonium fumarate] | – | 101.2 ± 3.1% | 81.7 ± 2.0% | – | t1/2 at 37 °C and [prodrug]0 = 50 µM, 100 % Human Plasma [2]: 0.84 ± 0.11^c min; t1/2 at 37 °C and [prodrug]0 = 50 µM, Human Saliva [3]: > 60 min
16 | NS(=O)(=O)c1cc(C(=O)O)c(NCc2ccco2)cc1Cl [Furosemide, reference compound] | – | 121.9 ± 13.8% | 90.7 ± 1.1% | – | Pe [1]: -0.4 ± 0.3^c 10^-6 cm/s
17 | Cn1c(=O)c2c(ncn2C)n(C)c1=O [Caffeine, reference compound] | 1% | – | – | 12.8 ± 0.9 ×10⁻⁶ cm/s | –
18 | CC(=O)Oc1ccccc1C(=O)O [Acetylsalicylic acid, reference compound] | – | 92.9 ± 3.3% | 83.8 ± 3.8% | – | half-life at 50 µM ([3]; both sexes): > 60 min
